Test results published in patent US20020148001A1, “Transgenic mice containing CRFR2 corticotropin-releasing factor receptor gene disruptions” (priority 2000, published 2002).
No end group written: not given here.

Legend:
[1] = test system: wild-type control mice (+/+); experiment: Metrazol dose test (seizure susceptibility), wild-type control mice; format: in vivo, mouse; conditions: genotype +/+
Method: (§1) A metrazol administration test can be used to screen animals for varying susceptibilities to seizures or similar events. For example, a 5 mg/ml solution of metrazol can be infused through the tail vein of a mouse at a rate of, e.g., approximately 0.375 ml/min. The infusion will cause all mice to experience seizures, followed by death. Those mice that enter the seizure stage the soonest are believed to be more prone to seizures.
(§2) Phenotypic Analysis. The transgenic mice were analyzed for phenotypic changes.

[2] = test system: homozygous mutant mice (CRFR2 −/−); experiment: Metrazol dose test (seizure susceptibility), CRFR2 homozygous mutant mice; format: in vivo, mouse; conditions: for Dose to Death / Dose to Extension (tonic extension) / Dose to T/C (tonic/clonic seizure) / Dose to Twitch: genotype −/−
Method: as §1, §2

CRHR2 −/− mice [3] = conditions: intravenously injected, mutant mice; cited from earlier work
CRHR2 −/− mice [4] = conditions: CRHR2 −/− mice following urocortin administration; recovered more rapidly than wildtype; cited from earlier work
CRHR2 −/− mice [5] = conditions: systemic urocortin, CRHR2 −/− mice in contrast to wildtype; cited from earlier work
CRF2 receptor = target: T1, CRF2 receptor (Homo sapiens, UniProt Q13324); conditions: transfected cells expressing the CRF2 receptor; cited from earlier work
T1 sequence (Q13324 1-411): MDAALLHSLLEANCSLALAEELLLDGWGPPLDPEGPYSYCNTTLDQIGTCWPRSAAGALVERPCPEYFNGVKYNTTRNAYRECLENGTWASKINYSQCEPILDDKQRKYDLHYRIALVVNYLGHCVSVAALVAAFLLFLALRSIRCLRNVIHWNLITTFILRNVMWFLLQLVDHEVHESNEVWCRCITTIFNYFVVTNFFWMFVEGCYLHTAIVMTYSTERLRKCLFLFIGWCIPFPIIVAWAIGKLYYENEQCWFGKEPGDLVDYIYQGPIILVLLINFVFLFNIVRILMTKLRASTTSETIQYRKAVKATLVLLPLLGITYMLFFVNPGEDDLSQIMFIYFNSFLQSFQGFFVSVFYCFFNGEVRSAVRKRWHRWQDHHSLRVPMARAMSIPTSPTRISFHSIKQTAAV

Question: With `C1CCc2nnnn2CC1` [metrazol] as the molecule, how does the “Dose to Death” value ([1]; F2N0) read?
Answer: The value was 136.65 mg/kg body weight.

Question: What about the “Dose to Extension (tonic extension)” value ([1]; F2N0) of the same molecule?
Answer: The value was 113.63 mg/kg body weight.

Question: What about the “Dose to T/C (tonic/clonic seizure)” value ([1]; F2N0) of the same molecule?
Answer: Its value is 43.46 mg/kg body weight.

Question: And the “Dose to Twitch” value ([1]; F2N0, tail vein infusion)?
Answer: The value was 36.93 mg/kg body weight.

Question: And the “Dose to Death” value ([1]; F2N1)?
Answer: The value was 124.96 mg/kg body weight.

Question: What about the “Dose to Extension (tonic extension)” value ([1]; F2N1) of the same molecule?
Answer: The value was 95.46 mg/kg body weight.

Question: What about the “Dose to T/C (tonic/clonic seizure)” value ([1]; F2N1) of the same molecule?
Answer: The value was 34.36 mg/kg body weight.

Question: What about the “Dose to Twitch” value ([1]; F2N1) of the same molecule?
Answer: The value was 23.71 mg/kg body weight.

Question: What about the “Dose to Death” value ([2]; F2N0) of the same molecule?
Answer: The value was 127.39 mg/kg body weight.

Question: And the “Dose to Extension (tonic extension)” value ([2]; F2N0)?
Answer: The value was 98.20 mg/kg body weight.

Question: And the “Dose to T/C (tonic/clonic seizure)” value ([2]; F2N0)?
Answer: Its value is 44.38 mg/kg body weight.

Question: And the “Dose to Twitch” value ([2]; F2N0)?
Answer: The value was 34.90 mg/kg body weight.

Question: What about the “Dose to Death” value ([2]; F2N1) of the same molecule?
Answer: The value was 148.84 mg/kg body weight.

Question: What about the “Dose to Extension (tonic extension)” value ([2]; F2N1) of the same molecule?
Answer: Its value is 119.75 mg/kg body weight.

Question: And the “Dose to T/C (tonic/clonic seizure)” value ([2]; F2N1)?
Answer: The value was 37.93 mg/kg body weight.

Question: What about the “Dose to Twitch” value ([2]; F2N1) of the same molecule?
Answer: The value was 24.18 mg/kg body weight.

Question: What about the “metrazol response threshold, dose to show stereotypical seizure responses” value ([2]; homozygotes compared to wild-types, particularly tonic extension and death) of the same molecule?
Answer: Its value is “higher dose of metrazol than wild-types”.

Question: With “urocortin (DDPPLSIDLTFHLLRTLLELARTQSQRERAEQNRIIFDSV; ends and bridges not checked; UniProt P81615 81-120, looked up)” as the molecule, how does the “effect on mean arterial pressure” value (CRHR2 −/− mice [3]) read?
Answer: Its value is “no effect”.

Question: And the feeding (CRHR2 −/− mice [4])?
Answer: The feeding was “initially suppressed”.

Question: And the “enhanced cardiac performance or reduced blood pressure” value (CRHR2 −/− mice [5])?
Answer: The value was “failed to show the enhanced cardiac performance or reduced blood pressure”.

Question: Which “intracellular cAMP” value (CRF2 receptor) does the source give for corticotropin-releasing hormone [CRH] here?
Answer: The value was “increase”.
